What was measured:
[1] = system: barnyardgrass (Echinochloa crus-galli); test: Test A preemergence barnyardgrass; type: in vivo; details: Echinochloa crus-galli, pre-emergence, 240 h, 0 to 100 scale, 0 no effect, 100 complete control, read-out: Barnyardgrass plant response rating; for pest or weed control at 125 g/ha: 125 g ai/ha; for pest or weed control at 500 g/ha: 500 g ai/ha
How it was run: (§1)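 Greenhouse pot test: chemicals formulated with surfactant in non-phytotoxic solvent, sprayed on soil at seeding (pre) or on 1–2 leaf seedlings of 2–10 cm (post). Rating ~10 d later, visual, 0 = no effect to 100 = complete control, relative to untreated controls.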

kochia (Kochia scoparia) [2] = test: Test A preemergence kochia; type: in vivo; details: Bassia scoparia, pre-emergence, 240 h, 0 to 100 scale, 0 no effect, 100 complete control, read-out: Kochia plant response rating; for pest or weed control at 125 g/ha: 125 g ai/ha; for pest or weed control at 500 g/ha: 500 g ai/ha
How it was run: as §1

[3] = system: ragweed (common ragweed, Ambrosia elatior); test: Test A preemergence ragweed; type: in vivo; details: Ambrosia artemisiifolia, pre-emergence, 240 h, 0 to 100 scale, 0 no effect, 100 complete control, read-out: Ragweed plant response rating; for pest or weed control at 125 g/ha: 125 g ai/ha; for pest or weed control at 500 g/ha: 500 g ai/ha
How it was run: as §1

[4] = system: ryegrass, Italian (Italian ryegrass, Lolium multiflorum); test: Test A preemergence ryegrass, Italian; type: in vivo; details: Lolium multiflorum, pre-emergence, 240 h, 0 to 100 scale, 0 no effect, 100 complete control, read-out: Ryegrass, Italian plant response rating; for pest or weed control at 125 g/ha: 125 g ai/ha; for pest or weed control at 500 g/ha: 500 g ai/ha
How it was run: as §1

[5] = system: foxtail, giant (giant foxtail, Setaria faberii); test: Test A preemergence foxtail, giant; type: in vivo; details: Setaria faberi, pre-emergence, 240 h, 0 to 100 scale, 0 no effect, 100 complete control, read-out: Foxtail, Giant plant response rating; for pest or weed control at 125 g/ha: 125 g ai/ha; for pest or weed control at 500 g/ha: 500 g ai/ha
How it was run: as §1

[6] = system: pigweed (Amaranthus retroflexus); test: Test A preemergence pigweed; type: in vivo; details: Amaranthus retroflexus, pre-emergence, 240 h, 0 to 100 scale, 0 no effect, 100 complete control, read-out: Pigweed plant response rating; for pest or weed control at 125 g/ha: 125 g ai/ha; for pest or weed control at 500 g/ha: 500 g ai/ha
How it was run: as §1

[7] = system: barnyardgrass (Echinochloa crus-galli); test: Test A postemergence barnyardgrass; type: in vivo; details: Echinochloa crus-galli, post-emergence, 240 h, 0 to 100 scale, 0 is no effect, 100 is complete control, read-out: Plant response rating, Barnyardgrass; for pest or weed control at 125 g/ha: 125 g ai/ha; for pest or weed control at 500 g/ha: 500 g ai/ha
How it was run: as §1

kochia (Kochia scoparia) [8] = test: Test A postemergence kochia; type: in vivo; details: Bassia scoparia, post-emergence, 240 h, 0 to 100 scale, 0 is no effect, 100 is complete control, read-out: Plant response rating, Kochia; for pest or weed control at 125 g/ha: 125 g ai/ha; for pest or weed control at 500 g/ha: 500 g ai/ha
How it was run: as §1

[9] = system: ragweed (common ragweed, Ambrosia elatior); test: Test A postemergence ragweed; type: in vivo; details: Ambrosia artemisiifolia, post-emergence, 240 h, 0 to 100 scale, 0 is no effect, 100 is complete control, read-out: Plant response rating, Ragweed; for pest or weed control at 125 g/ha: 125 g ai/ha; for pest or weed control at 500 g/ha: 500 g ai/ha
How it was run: as §1

[10] = system: ryegrass, Italian (Italian ryegrass, Lolium multiflorum); test: Test A postemergence ryegrass, Italian; type: in vivo; details: Lolium multiflorum, post-emergence, 240 h, 0 to 100 scale, 0 is no effect, 100 is complete control, read-out: Plant response rating, Ryegrass, Italian; for pest or weed control at 125 g/ha: 125 g ai/ha; for pest or weed control at 500 g/ha: 500 g ai/ha
How it was run: as §1

[11] = system: foxtail, giant (giant foxtail, Setaria faberii); test: Test A postemergence foxtail, giant; type: in vivo; details: Setaria faberi, post-emergence, 240 h, 0 to 100 scale, 0 is no effect, 100 is complete control, read-out: Plant response rating, Foxtail, Giant; for pest or weed control at 125 g/ha: 125 g ai/ha; for pest or weed control at 500 g/ha: 500 g ai/ha
How it was run: as §1

[12] = system: pigweed (Amaranthus retroflexus); test: Test A postemergence pigweed; type: in vivo; details: Amaranthus retroflexus, post-emergence, 240 h, 0 to 100 scale, 0 is no effect, 100 is complete control, read-out: Plant response rating, Pigweed; for pest or weed control at 125 g/ha: 125 g ai/ha; for pest or weed control at 500 g/ha: 500 g ai/ha
How it was run: as §1

[13] = system: wheat (Triticum aestivum); test: Test A postemergence wheat; type: in vivo; details: Triticum aestivum, post-emergence, 240 h, 0 to 100 scale, 0 is no effect, 100 is complete control, read-out: Plant response rating, Wheat; for plant injury at 125 g/ha: 125 g ai/ha; for plant injury at 500 g/ha: 500 g ai/ha
How it was run: as §1

corn (Zea mays) = test: Test A postemergence corn; type: in vivo; details: Zea mays, post-emergence, 240 h, 0 to 100 scale, 0 is no effect, 100 is complete control; for Corn plant response rating (crop injury, 0 = no effect, 100 = complete kill) at 125 g/ha: 125 g ai/ha; for Corn plant response rating (crop injury, 0 = no effect, 100 = complete kill) at 500 g/ha: 500 g ai/ha
How it was run: as §1

[14] = system: blackgrass (Alopecurus myosuroides); test: Test A postemergence blackgrass; type: in vivo; details: Alopecurus myosuroides, post-emergence, 240 h, 0 to 100 scale, 0 is no effect, 100 is complete control, read-out: Plant response rating, Blackgrass; for pest or weed control at 125 g/ha: 125 g ai/ha; for pest or weed control at 500 g/ha: 500 g ai/ha
How it was run: as §1

[15] = system: galium (catchweed bedstraw, Galium aparine); test: Test A postemergence galium; type: in vivo; details: Galium, post-emergence, 240 h, 0 to 100 scale, 0 is no effect, 100 is complete control, read-out: Plant response rating, Galium; for pest or weed control at 125 g/ha: 125 g ai/ha; for pest or weed control at 500 g/ha: 500 g ai/ha
How it was run: as §1

rice (Oryza sativa) = test: Test B flooded paddy test rice; type: in vivo; details: Oryza sativa, Table B, Flood, 250 g ai/ha, scale 0 to 100, read-out: Plant response rating
How it was run: (§2)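 Once seedlings reached two leaves, pots were flooded 3 cm deep and treated via the paddy water, which remained at that level. Evaluation was visual, against controls, after 13 to 15 d under greenhouse conditions.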

[16] = system: sedge, umbrella (small-flower umbrella sedge, Cyperus difformis); test: Test B flooded paddy test sedge, umbrella; type: in vivo; details: Cyperus difformis, Table B, Flood, 250 g ai/ha, scale 0 to 100, read-out: Plant response rating
How it was run: as §2

[17] = system: ducksalad (Heteranthera limosa); test: Test B flooded paddy test ducksalad; type: in vivo; details: Heteranthera limosa, Table B, Flood, 250 g ai/ha, scale 0 to 100, read-out: Plant response rating
How it was run: as §2

[18] = system: barnyardgrass (Echinochloa crus-galli); test: Test B flooded paddy test barnyardgrass; type: in vivo; details: Echinochloa crus-galli, Table B, Flood, 250 g ai/ha, scale 0 to 100, read-out: Plant response rating
How it was run: as §2

SMILES	pest or weed control at 125 g/ha [1]	pest or weed control at 500 g/ha [1]	pest or weed control at 125 g/ha (kochia (Kochia scoparia) [2])	pest or weed control at 500 g/ha (kochia (Kochia scoparia) [2])	pest or weed control at 125 g/ha [3]	pest or weed control at 500 g/ha [3]	pest or weed control at 125 g/ha [4]	pest or weed control at 500 g/ha [4]	pest or weed control at 125 g/ha [5]	pest or weed control at 500 g/ha [5]	pest or weed control at 125 g/ha [6]	pest or weed control at 500 g/ha [6]	pest or weed control at 125 g/ha [7]	pest or weed control at 500 g/ha [7]	pest or weed control at 125 g/ha (kochia (Kochia scoparia) [8])	pest or weed control at 500 g/ha (kochia (Kochia scoparia) [8])	pest or weed control at 125 g/ha [9]	pest or weed control at 500 g/ha [9]	pest or weed control at 125 g/ha [10]	pest or weed control at 500 g/ha [10]	other results
O=C1NCCC(c2cccc(C(F)F)c2)C1C(=O)Nc1cccc(F)c1F (centres unmarked) [Compound 49, 4-[3-(difluoromethyl)phenyl]-N-(2,3-difluorophenyl)-2-oxo-3-piperidinecarboxamide]	80%	90%	0%	0%	0%	0%	0%	60%	90%	90%	0%	0%	80%	90%	0%	0%	0%	0%	0%	0%	pest or weed control at 125 g/ha [11]: 80%; pest or weed control at 500 g/ha [11]: 80%; pest or weed control at 125 g/ha [12]: 0%; pest or weed control at 500 g/ha [12]: 0%; plant injury at 125 g/ha [13]: 0%; plant injury at 500 g/ha [13]: 30%; Corn plant response rating (crop injury, 0 = no effect, 100 = complete kill) at 125 g/ha (corn (Zea mays)): 0%; Corn plant response rating (crop injury, 0 = no effect, 100 = complete kill) at 500 g/ha (corn (Zea mays)): 50%; pest or weed control at 125 g/ha [14]: 0%; pest or weed control at 500 g/ha [14]: 50%; pest or weed control at 125 g/ha [15]: 0%; pest or weed control at 500 g/ha [15]: 0%; plant injury at 250 g/ha (rice (Oryza sativa)): 0%; pest or weed control at 250 g/ha [16]: 0%; pest or weed control at 250 g/ha [17]: 100%; pest or weed control at 250 g/ha [18]: 70%; melting point: 134 to 137 °C
O=C1NCCC(c2cccc(Cl)c2)C1C(=O)Nc1cccc(F)c1F (centres unmarked) [Compound 36, 4-(3-chlorophenyl)-N-(2,3-difluorophenyl)-2-oxo-3-piperidinecarboxamide]	90%	90%	0%	0%	0%	0%	0%	30%	90%	90%	0%	0%	80%	90%	0%	0%	0%	0%	0%	20%	pest or weed control at 125 g/ha [11]: 90%; pest or weed control at 500 g/ha [11]: 90%; pest or weed control at 125 g/ha [12]: 0%; pest or weed control at 500 g/ha [12]: 0%; plant injury at 125 g/ha [13]: 0%; plant injury at 500 g/ha [13]: 0%; Corn plant response rating (crop injury, 0 = no effect, 100 = complete kill) at 125 g/ha (corn (Zea mays)): 0%; Corn plant response rating (crop injury, 0 = no effect, 100 = complete kill) at 500 g/ha (corn (Zea mays)): 0%; pest or weed control at 125 g/ha [14]: 0%; pest or weed control at 500 g/ha [14]: 60%; pest or weed control at 125 g/ha [15]: 0%; pest or weed control at 500 g/ha [15]: 30%; plant injury at 250 g/ha (rice (Oryza sativa)): 0%; pest or weed control at 250 g/ha [16]: 0%; pest or weed control at 250 g/ha [17]: 90%; pest or weed control at 250 g/ha [18]: 60%; melting point: 100 to 102 °C
